# Measurements: patent US7741281B2, “Hepatitis C virus inhibitors” (Bristol-Myers Squibb Company, priority 2005, dated 2010)
# Assays:
# [1] = biological target: T1, HCV NS3/4A protease complex, J4L6S strain (Hepatitis C virus genotype 1b, UniProt O92972, C1454S/C1711G); assay: FRET peptide assay to monitor HCV NS3/4A proteolytic activity (J4L6S strain); type: biochemical, HCV genotype 1b
# T1 construct: recombinant HCV NS3/4A protease complex (amino acids 1027 to 1711) for these strains; His tag (inferred from pET21b vector and Ni-NTA purification); made in house; host or cells: Escherichia coli BL21 (DE3), pET21b
# T1 sequence (O92972 1027-1711 C1454S/C1711G, one chain of several): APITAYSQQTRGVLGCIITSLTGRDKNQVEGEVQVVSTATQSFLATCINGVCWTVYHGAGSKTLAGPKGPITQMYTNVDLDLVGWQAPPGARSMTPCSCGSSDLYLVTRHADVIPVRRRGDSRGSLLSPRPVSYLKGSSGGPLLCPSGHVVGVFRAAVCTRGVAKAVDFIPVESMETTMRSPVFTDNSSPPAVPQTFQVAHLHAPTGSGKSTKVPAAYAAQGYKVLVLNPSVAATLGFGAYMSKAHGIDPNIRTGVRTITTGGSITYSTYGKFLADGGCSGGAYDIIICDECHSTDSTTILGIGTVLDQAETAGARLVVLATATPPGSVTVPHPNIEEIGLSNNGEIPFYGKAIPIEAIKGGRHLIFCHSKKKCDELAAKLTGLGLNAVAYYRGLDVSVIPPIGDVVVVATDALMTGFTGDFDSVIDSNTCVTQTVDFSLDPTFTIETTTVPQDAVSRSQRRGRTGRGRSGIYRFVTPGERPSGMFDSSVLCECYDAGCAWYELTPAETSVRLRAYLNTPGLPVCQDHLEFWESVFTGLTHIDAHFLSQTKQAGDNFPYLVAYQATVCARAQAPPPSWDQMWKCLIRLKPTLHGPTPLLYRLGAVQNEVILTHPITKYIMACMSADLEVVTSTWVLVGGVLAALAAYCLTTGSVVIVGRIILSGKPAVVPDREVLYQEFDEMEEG
# Source text: HCV NS3 protease complexes, derived from the BMS strain, H77 strain or J4L6S strain, were generated, as described below. These purified recombinant proteins were generated for use in a homogeneous assay (see below) to provide an indication of how effective compounds of the present disclosure would be in inhibiting HCV NS3 proteolytic activity.
# Serum from an HCV-infected patient was obtained from Dr. T. Wright, San Francisco Hospital. An engineered full-length cDNA (compliment deoxyribonucleic acid) template of the HCV genome (BMS strain) was constructed from DNA fragments obtained by reverse transcription-PCR (RT-PCR) of serum RNA (ribonucleic acid) and using primers selected on the basis of homology between other genotype 1a strains. From the determination of the entire genome sequence, a genotype 1a was assigned to the HCV isolate according to the classification of Simmonds et al. (See P Simmonds, K A Rose, S Graham, S W Chan, F McOmish, B C Dow, E A Follett, P L Yap and H Marsden, J. Clin. Microbiol., 31(6), 1493-1503 (1993)). […]
# human liver cathepsin B = biological target: T2, human liver cathepsin B (Homo sapiens, UniProt P07858); assay: Specificity assay, cathepsin B (AMC substrate); type: biochemical; conditions: read-out: Cathepsin B activity in the specificity assays (IC50)
# T2 construct: purchased Sigma or EMDbiosciences; host or cells: human liver (as named)
# Procedure: (§1) The specificities of compounds of the present disclosure were determined against a variety of serine proteases: human neutrophil elastase (HNE), porcine pancreatic elastase (PPE) and human pancreatic chymotrypsin and one cysteine protease: human liver cathepsin B. In all cases, a 96-well plate format protocol using colorimetric p-nitroaniline (pNA) substrate or fluorometric Amino-Methyl-Coumarin (AMC) substrate, specific for each enzyme was used as described previously (PCT Patent Application No. WO 00/09543) with some modifications. All enzymes were purchased from Sigma or EMDbiosciences while the substrates were from Bachem.
# (§2) Each pNA assay included a 2 h enzyme-inhibitor pre-incubation at room temperature followed by addition of substrate and hydrolysis to ˜15% conversion as measured on a Spectramax Pro microplate reader. The cathepsin B assay was initiated by adding substrate to a 10 min enzyme-inhibitor pre-incubation at room temperature, and the assay plate measured immediately using the Cytofluor Series 4000. Compound concentrations varied from 100 to 0.4 μM depending on their potency.
# (§3) The final conditions for each assay were as follows: […]
# (§4) The percentage of inhibition was calculated using the formula: [1−((UVinh−UVblank)/(UVctl−UVblank))]×100 […]
# [2] = test system: human pancreatic chymotrypsin; assay: Specificity assay, chymotrypsin (pNA substrate); type: biochemical; conditions: read-out: Chymotrypsin activity in the specificity assays (IC50)
# Procedure: as §1, §2, §3, §4
smiles,measurement,setting,value
COc1c(O[C@@H]2C[C@H]3C(=O)N[C@]4(C(=O)NS(=O)(=O)C5CC5)C[C@H]4/C=C\CCCCC[C@H](NC(=O)OC(C)(C)C)C(=O)N3C2)ccc2c(Cl)nccc12 [Compound 3],IC50,[1],0.00047 µM
same,IC50,human liver cathepsin B,100 µM
same,IC50,[2],> 100 µM
